Reference: the NIST ThermoML archive (doi:10.1016/j.jct.2006.01.012)
Numbers after ± are expanded uncertainties.

Conditions: Liquid; for viscosity: Capillary tube (Ostwald / Ubbelohde) method; for mass density: isochoric method

CCCCCCC [heptane]
viscosity (298.24 K, 100 kPa): 0.388 ± 0.013 mPa·s
mass density (302.46 K, 100 kPa): 675.91 ± 0.82 kg/m3
viscosity (306.79 K, 5000 kPa): 0.3779 ± 0.012 mPa·s
viscosity (306.79 K, 10000 kPa): 0.4013 ± 0.013 mPa·s
mass density (307.61 K, 4760 kPa): 676.1 ± 0.8 kg/m3
mass density (307.61 K, 11941 kPa): 683.2 ± 0.8 kg/m3
mass density (314.57 K, 100 kPa): 665.62 ± 0.81 kg/m3
viscosity (323.93 K, 100 kPa): 0.2979 ± 0.0098 mPa·s
mass density (329.71 K, 100 kPa): 652.43 ± 0.8 kg/m3
viscosity (337.54 K, 5000 kPa): 0.28 ± 0.01 mPa·s
viscosity (337.54 K, 10000 kPa): 0.2978 ± 0.0098 mPa·s
mass density (342.94 K, 100 kPa): 640.61 ± 0.78 kg/m3
viscosity (348.64 K, 100 kPa): 0.2354 ± 0.0078 mPa·s
mass density (353.76 K, 100 kPa): 630.86 ± 0.77 kg/m3
viscosity (369.35 K, 5000 kPa): 0.2116 ± 0.007 mPa·s
viscosity (369.35 K, 10000 kPa): 0.2259 ± 0.0075 mPa·s
mass density (387 K, 5783 kPa): 610 ± 0.7 kg/m3
mass density (387 K, 12460 kPa): 620.7 ± 0.8 kg/m3
viscosity (407.85 K, 5000 kPa): 0.1595 ± 0.0053 mPa·s
viscosity (407.85 K, 10000 kPa): 0.1718 ± 0.0057 mPa·s
viscosity (449.64 K, 5000 kPa): 0.122 ± 0.004 mPa·s
viscosity (449.64 K, 10000 kPa): 0.1338 ± 0.0045 mPa·s
mass density (450.12 K, 4350 kPa): 543.7 ± 0.7 kg/m3
mass density (450.12 K, 11492 kPa): 564.4 ± 0.7 kg/m3
viscosity (473.54 K, 5000 kPa): 0.1012 ± 0.0035 mPa·s
viscosity (473.54 K, 10000 kPa): 0.113 ± 0.004 mPa·s
mass density (500.47 K, 6791 kPa): 492.7 ± 0.6 kg/m3
mass density (500.47 K, 10720 kPa): 512.8 ± 0.6 kg/m3

CCCCCCCC [octane]
viscosity (298.24 K, 100 kPa): 0.508 ± 0.017 mPa·s
mass density (301.84 K, 100 kPa): 695.24 ± 0.85 kg/m3
viscosity (308.72 K, 5000 kPa): 0.4786 ± 0.016 mPa·s
viscosity (308.72 K, 10000 kPa): 0.5043 ± 0.017 mPa·s
mass density (311.89 K, 4680 kPa): 691.6 ± 0.8 kg/m3
mass density (311.89 K, 10642 kPa): 697.4 ± 0.9 kg/m3
mass density (316.49 K, 100 kPa): 683.55 ± 0.83 kg/m3
viscosity (323.93 K, 100 kPa): 0.3829 ± 0.013 mPa·s
mass density (329.76 K, 100 kPa): 672.69 ± 0.82 kg/m3
mass density (340.94 K, 100 kPa): 663.24 ± 0.81 kg/m3
viscosity (348.64 K, 100 kPa): 0.3034 ± 0.01 mPa·s
viscosity (349.46 K, 5000 kPa): 0.3187 ± 0.01 mPa·s
viscosity (349.46 K, 10000 kPa): 0.3364 ± 0.011 mPa·s
mass density (358.76 K, 100 kPa): 648.1 ± 0.8 kg/m3
mass density (367.61 K, 5873 kPa): 648.8 ± 0.8 kg/m3
mass density (367.61 K, 11461 kPa): 656.2 ± 0.8 kg/m3
viscosity (394.81 K, 5000 kPa): 0.2197 ± 0.0073 mPa·s
viscosity (394.81 K, 10000 kPa): 0.2334 ± 0.0077 mPa·s
viscosity (436.86 K, 5000 kPa): 0.1672 ± 0.0056 mPa·s
viscosity (436.86 K, 10000 kPa): 0.1799 ± 0.006 mPa·s
mass density (437.97 K, 6430 kPa): 589.6 ± 0.7 kg/m3
mass density (437.97 K, 11084 kPa): 599.5 ± 0.7 kg/m3
viscosity (467.46 K, 5000 kPa): 0.1338 ± 0.0045 mPa·s
viscosity (467.46 K, 10000 kPa): 0.1458 ± 0.0049 mPa·s
mass density (516.64 K, 5712 kPa): 505.4 ± 0.6 kg/m3
mass density (516.64 K, 9791 kPa): 525.2 ± 0.6 kg/m3
